Here are results for 15 compounds from patent US9181266B2, “2-piperidin-1-yl-acetamide compounds for use as tankyrase inhibitors” (NOVARTIS AG, priority 2011, dated 2015).

Values joined by “and” are separate entries in the source; they are usually repeats but may differ in a detail not shown here. Equal values may be shown once. Read-outs that look alike come from different tables or passages of the source.

Assay [1] deals with Axin2 protein in SW480 cells. Put plainly: Cellular ELISA assay of Axin2 protein stabilization. Type of assay: cell-based. Conditions: Homo sapiens, 24 hrs, read-out: Axin AC50. The method, then: Cellular ELISA Assay to Determine Compound Effect on Stabilizing the Axin2 Protein Compound activity in stabilizing the Axin2 protein was measured by Sandwich Enzyme-Linked Immuosorbent (ELISA) assay in the colorectal cell line SW480. 30,000 SW480 cells were seeded per well in 96-well plate and incubated overnight prior to compound treatment. […] Cells were then washed with 100 μL of cold Phosphate Buffer Saline (PBS), and lysed in 125 μl of cold 1× lysis buffer (Cell Signaling Technology, 9803) supplemented with Protease inhibitor (Roche, 11836170) and Phosphatase inhibitors (Sigma, P2850, P5726). For the ELISA assay, anti Axin-2 capture antibody (Strategic Diagnostics) antibody was diluted to a concentration of 1 μg/ml (1:1000) in Carbonate Coating buffer, pH 9.2 (Sigma, C3041-50CAP). […], of the diluted anti Axin-2 capture antibody per well was then used to coat the 96-well ELISA plate (Thermo Electron Corp., MicroLite 1 flat bottom plate #7571) overnight at 4° C. […] After blocking, plates were then washed three times with 300 μl/well of wash solution. 100 μL of prepared SW480 cell lysate was then added to each well and incubated at room temperature for 2 hours while shaking gently. After washing, 100 μL of Biotinylated anti-Axin2 antibody (CST, 2151) was added to each well and incubated room temperature for 2 hours. 100 μL of Streptavidin-HRP (R&D systems, DY998) diluted 1:200 in 1% BSA/PBS was then added in each well and incubate for 30 mins at R/T in the dark.

A further assay concerns the target PARP2 (Mus musculus (Mouse), UniProt O88554). Kind of assay: PARP2 autoparsylation assay (LC/MS detection of nicotinamide). Type of assay: biochemical. The following applies: 20 nM enzyme, 250 μM β-NAD+, 60 min. The procedure:
(§1) The autoparsylation activity of the TNKS 1/2 or PARP1/2 enzymes was measured by the liquid chromatography-mass spectrometry (LC/MS) detection of nicotinamide as readout. Compound activity in inhibiting the TNKS and PARP autoparsylation was evaluated by IC50 measurements.

The subject of assay [2] is Non-small lung cancer ABC-1 cells. Kind of assay: Cellular proliferation assay (CellTiter-Glo). Type of assay: cell-based. The following applies: Homo sapiens, read-out: ABC-1 IC50.
Protocol: Cellular Proliferation Assay to Determine Compound Inhibition of Cancer Cell Growth
Viable cells were measured after 3 days of compound treatment using the CellTiter-Glo assay (Promega, G7570). Assay was performed following the manufacture protocol.
Assay [3] relates to Wnt ligand-induced signaling in HEK293 cells. Put plainly: Wnt-responsive Super-TOpFlash (STF) luciferase reporter gene assay. Type of assay: cell-based. Conditions: Homo sapiens, Wnt3A condition medium. The procedure:
Cellular Reporter Gene Assay to Determine Compound Inhibition of Wnt Signaling Activity
Compound activity in inhibiting Wnt ligand-induced signaling was measured using a Wnt-responsive Super-TOpFlash (STF) luciferase reporter gene assay in HEK293 cells. On day 1 of the assay, cells were plated at a density of 8000 cells per well of 384-well plate in 25 μl medium containing 5% fetal bovine serum (FBS). On the second day, […] condition medium (CM) produced from mouse L cells was added to the cells to induce Wnt signaling, followed by addition of 5 μL of compounds each well in 10-point serial dilution. On the third day, the luciferase activity was measured by the Bright-Glo™ Luciferase Assay System following manufacture's protocol (Promega, E2620). The Inhibition was calculated as: (Maximum Wnt-induced signaling−Sample)/(Maximum Wnt-induced signaling−Background)*100. “Maximum Wnt-induced signaling” is the STF signal level induced by 20% Wnt3A CM without compound; and “Background” is the STF signal level without the addition of Wnt3A CM or compound.

A further assay addresses Human PARP1 (Homo sapiens (Human), UniProt P09874). Kind of assay: PARP1 autoparsylation assay (LC/MS detection of nicotinamide). The format is biochemical. Conditions: 20 nM enzyme, 250 μM β-NAD+, 60 min. The procedure:
as §1

Assay [4] addresses tankyrase 2 protein PARP domain, TNKS2P (Homo sapiens (Human), UniProt Q9H2K2). Put plainly: TNKS2 autoparsylation assay (LC/MS detection of nicotinamide). The following applies: read-out: TNKS2 AP IC50, 20 nM enzyme, 250 μM β-NAD+, 60 min.
Protocol: Biochemical Assay to Determine Compound Inhibition of TNKS Enzyme Activity
The autoparsylation activity of the TNKS 1/2 or PARP1/2 enzymes was measured by the liquid chromatography-mass spectrometry (LC/MS) detection of nicotinamide as readout. Compound activity in inhibiting the TNKS and PARP autoparsylation was evaluated by IC50 measurements. […] For the background control wells, 10 μL of the 5× quenching solution per well was added prior to the addition of β-NAD^+. The % Inhibition was calculated as: (Control−Sample)/(Control−Background)*100.
For assay [5], the target named is human tankyrase 1 PARP catalytic domain, TNKS1P (Homo sapiens (Human), UniProt O95271). Kind of assay: TNKS1 autoparsylation assay (LC/MS detection of nicotinamide). Conditions: read-out: TNKS1 AP IC50, 20 nM enzyme, 250 μM β-NAD+, 60 min.
human tankyrase 1 PARP catalytic domain, TNKS1P, sequence (O95271 1112-1317): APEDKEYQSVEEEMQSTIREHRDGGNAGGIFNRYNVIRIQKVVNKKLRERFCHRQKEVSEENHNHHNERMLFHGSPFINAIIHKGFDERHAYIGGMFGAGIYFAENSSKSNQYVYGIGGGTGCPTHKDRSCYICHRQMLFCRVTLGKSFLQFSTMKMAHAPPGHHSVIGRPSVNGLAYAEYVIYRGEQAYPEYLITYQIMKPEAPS
Setting [6] is: 72 h, ABC-1 cells, 3 days of compound treatment.

PARP2, sequence (O88554 whole entry): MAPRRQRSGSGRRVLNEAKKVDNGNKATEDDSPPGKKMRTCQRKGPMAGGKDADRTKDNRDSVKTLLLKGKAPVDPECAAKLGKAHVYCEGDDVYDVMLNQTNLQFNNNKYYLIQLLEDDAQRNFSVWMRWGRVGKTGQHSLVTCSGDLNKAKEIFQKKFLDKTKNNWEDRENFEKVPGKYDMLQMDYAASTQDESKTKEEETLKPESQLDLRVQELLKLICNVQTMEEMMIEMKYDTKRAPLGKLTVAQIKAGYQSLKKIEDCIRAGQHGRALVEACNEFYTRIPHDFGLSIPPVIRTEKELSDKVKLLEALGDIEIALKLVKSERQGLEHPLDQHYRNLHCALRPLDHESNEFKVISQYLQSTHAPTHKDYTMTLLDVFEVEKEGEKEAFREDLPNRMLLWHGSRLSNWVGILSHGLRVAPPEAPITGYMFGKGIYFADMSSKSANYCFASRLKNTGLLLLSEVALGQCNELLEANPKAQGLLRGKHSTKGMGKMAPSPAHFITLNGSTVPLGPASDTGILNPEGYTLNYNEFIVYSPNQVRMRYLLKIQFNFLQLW
Human PARP1, sequence (P09874 whole entry): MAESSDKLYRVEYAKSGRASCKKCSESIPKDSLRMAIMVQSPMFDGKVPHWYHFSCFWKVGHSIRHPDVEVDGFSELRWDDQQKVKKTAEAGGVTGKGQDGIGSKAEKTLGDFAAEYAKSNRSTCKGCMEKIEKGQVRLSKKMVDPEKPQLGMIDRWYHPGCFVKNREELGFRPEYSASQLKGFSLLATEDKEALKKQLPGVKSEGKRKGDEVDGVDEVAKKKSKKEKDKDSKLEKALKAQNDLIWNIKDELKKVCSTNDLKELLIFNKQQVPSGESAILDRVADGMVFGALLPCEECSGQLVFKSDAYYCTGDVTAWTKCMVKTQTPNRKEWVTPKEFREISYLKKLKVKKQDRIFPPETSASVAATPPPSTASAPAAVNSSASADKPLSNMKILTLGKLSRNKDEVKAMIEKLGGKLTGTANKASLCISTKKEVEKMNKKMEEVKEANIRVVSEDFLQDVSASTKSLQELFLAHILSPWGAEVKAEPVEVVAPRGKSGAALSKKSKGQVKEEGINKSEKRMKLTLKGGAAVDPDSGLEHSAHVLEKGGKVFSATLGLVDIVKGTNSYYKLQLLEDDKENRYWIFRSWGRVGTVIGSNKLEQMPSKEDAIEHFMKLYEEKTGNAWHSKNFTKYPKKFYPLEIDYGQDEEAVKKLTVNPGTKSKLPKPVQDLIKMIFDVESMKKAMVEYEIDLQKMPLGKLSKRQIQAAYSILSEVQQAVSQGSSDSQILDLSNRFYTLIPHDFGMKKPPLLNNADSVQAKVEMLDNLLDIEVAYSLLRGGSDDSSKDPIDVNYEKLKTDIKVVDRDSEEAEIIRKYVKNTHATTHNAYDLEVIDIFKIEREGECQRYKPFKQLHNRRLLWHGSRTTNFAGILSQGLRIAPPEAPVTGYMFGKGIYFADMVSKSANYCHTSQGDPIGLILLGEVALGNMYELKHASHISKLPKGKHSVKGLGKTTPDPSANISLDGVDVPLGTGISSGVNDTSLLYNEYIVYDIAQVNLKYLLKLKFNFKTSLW
tankyrase 2 protein PARP domain, TNKS2P, sequence (Q9H2K2 959-1164): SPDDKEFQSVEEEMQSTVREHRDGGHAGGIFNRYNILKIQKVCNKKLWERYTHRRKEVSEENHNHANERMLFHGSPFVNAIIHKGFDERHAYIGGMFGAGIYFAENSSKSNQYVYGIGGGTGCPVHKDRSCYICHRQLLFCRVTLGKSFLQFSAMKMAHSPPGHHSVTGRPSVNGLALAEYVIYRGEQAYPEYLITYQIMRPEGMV

Regarding `COc1ccc(C(=O)C2CCN(CC(=O)N(Cc3nc4c(c(=O)[nH]3)CCCC4)CC3CC3)CC2)cc1` [Example 8, N-(Cyclopropylmethyl)-2-(4-(4-methoxybenzoyl)piperidin-1-yl)-N-((4-oxo-3,4,5,6,7,8-hexahydroquinazolin-2-yl)methyl)acetamide], the AC50 in assay [1] was 13 ± 3 nM. Further, the IC50 on PARP2 came to 9.14 ± 0.21 µM; in assay [2] (ABC-1, 72 h), 22 nM; in assay [3], 3 ± 1 nM.
For `COc1ccc(C(=O)C2CCN(CC(=O)NCc3nc4c(c(=O)[nH]3)CCCC4)CC2)cc1` [Example 9, 2-(4-(4-Methoxybenzoyl)piperidin-1-yl)-N-((4-oxo-3,4,5,6,7,8-hexahydroquinazolin-2-yl)methyl)acetamide], in that order: 9 ± 2 nM, 0.243 ± 0.066 µM, 41 nM and 3 ± 3 nM.
On to `C[C@@H](c1ccccc1)N(Cc1nc2c(c(=O)[nH]1)COCC2)C(=O)CN1CCC(C(=O)c2ccc(F)cc2)CC1` [Example 23, 2-[4-(4-Fluoro-benzoyl)-piperidin-1-yl]-N-(4-oxo-3,5,7,8-tetrahydro-4H-pyrano[4,3-d]pyrimidin-2-ylmethyl)-N—((S)-1-phenyl-ethyl)-acetamide], for which the IC50 at Human PARP1 is greater than 19 µM; against PARP2, greater than 19 µM; in assay [4], 50 ± 1 nM; in assay [3], 189 ± 76 nM; in assay [5] it was 209 ± 3 nM.
Turning to `N#CCN(Cc1nc2c(c(=O)[nH]1)COCC2)C(=O)CN1CCC(C(=O)c2ccc(F)cc2)CC1` [Example 43, N-Cyanomethyl-2-[4-(4-fluoro-benzoyl)-piperidin-1-yl]-N-(4-oxo-3,5,7,8-tetrahydro-4H-pyrano[4,3-d]pyrimidin-2-ylmethyl)-acetamide], the IC50 at Human PARP1 was > 19 µM and 42.9 µM; in assay [3] it was 362 nM; in assay [5] it was greater than 19000 nM.
Take `O=C(CN1CCC(c2noc3cc(F)ccc23)CC1)NCc1nc2c(c(=O)[nH]1)COCC2` [Example 51, 2-(4-(6-Fluorobenzo[d]isoxazol-3-yl)piperidin-1-yl)-N-((4-oxo-4,5,7,8-tetrahydro-3H-pyrano[4,3-d]pyrimidin-2-yl)methyl)acetamide]: the IC50 at Human PARP1 was 7.63 ± 0.32 µM; on PARP2 it was 3.09 ± 0.39 µM; in assay [4], 43 ± 2 nM; in assay [5], 207 ± 17 nM.
For the compound `O=C(c1cccc(OC(F)(F)F)c1)C1CCN(CC(=O)N(Cc2nc3c(c(=O)[nH]2)COCC3)CC(F)F)CC1` [Example 74, N-(2,2-Difluoro-ethyl)-N-(4-oxo-3,5,7,8-tetrahydro-4H-pyrano[4,3-d]pyrimidin-2-ylmethyl)-2-[4-(3-trifluoromethoxy-benzoyl)-piperidin-1-yl]-acetamide], in assay [1], the AC50 was 508 ± 50 nM. Also, the IC50 in assay [2] (setting [6]) came out at 590 nM; in assay [4] it was 38 ± 4 nM; in assay [3], 35.1 ± 3.4 nM; in assay [5] it was 155 ± 15 nM.
For `O=C(c1ccccn1)C1CCN(CC(=O)N(Cc2nc3c(c(=O)[nH]2)COCC3)CC2CC2)CC1` [Example 76, N-Cyclopropylmethyl-N-(4-oxo-3,5,7,8-tetrahydro-4H-pyrano[4,3-d]pyrimidin-2-ylmethyl)-2-[4-(pyridine-2-carbonyl)-piperidin-1-yl]-acetamide], in that order: 176 ± 14 nM, 236 nM, 32 ± 1 nM, 32 ± 10 nM and 105 ± 1 nM.
As for `O=C(c1ccc(OCc2ccccc2)cc1)C1CCN(CC(=O)N(Cc2nc3c(c(=O)[nH]2)COCC3)CC2CC2)CC1` [Example 77], the AC50 in assay [1] was determined as 4480 ± 90 nM. In addition, the IC50 in assay [2] (setting [6]) worked out at 2710 nM; in assay [4], 764 ± 51 nM; in assay [3] it was 55 ± 8 nM; in assay [5], 1170 ± 50 nM.
For `O=C(CN1CCC(C(=O)N2CCc3ccccc3C2)CC1)NCc1nc2c(c(=O)[nH]1)COCC2` [Example 79, N-((4-Oxo-4,5,7,8-tetrahydro-3H-pyrano[4,3-d]pyrimidin-2-yl)methyl)-2-(4-(1,2,3,4-tetrahydroisoquinoline-2-carbonyl)piperidin-1-yl)acetamide], in that order: 27 ± 3 nM, 26 nM, 815 ± 28 nM, 6.5 ± 2.7 nM and 3020 ± 49 nM.
For `COc1ccc(C(=O)C2CCN(CC(=O)NCc3nc4c(c(=O)[nH]3)COCC4)CC2)cc1OC` [Example 90, 2-[4-(3,4-Dimethoxy-benzoyl)-piperidin-1-yl]-N-(4-oxo-3,5,7,8-tetrahydro-4H-pyrano[4,3-c]pyrimidin-2-ylmethyl)-acetamide], in that order: 20 ± 5 nM, 38 nM, 18 nM, 10.3 ± 0.8 nM and 42 ± 2 nM.
In the same order, the values of `O=C(CN1CCC(C(=O)c2ccc3c(c2)OCO3)CC1)NCc1nc2c(c(=O)[nH]1)COCC2` [Example 92, 2-[4-(Benzo[1,3]dioxole-5-carbonyl)-piperidin-1-yl]-N-(4-oxo-3,5,7,8-tetrahydro-4H-pyrano[4,3-c]pyrimidin-2-ylmethyl)-acetamide] are 154 ± 25 nM, 346 nM, 43 nM, 9.1 ± 1.2 nM and 129 ± 1 nM.
Take `COc1ccc(C(=O)C2CCN(CC(=O)NCc3nc4c(c(=O)[nH]3)COCC4)CC2)cc1Cl` [Example 94, 2-[4-(3-Chloro-4-methoxy-benzoyl)-piperidin-1-yl]-N-(4-oxo-3,5,7,8-tetrahydro-4H-pyrano[4,3-d]pyrimidin-2-ylmethyl)-acetamide]: the AC50 in assay [1] was 11 ± 2 nM. For the same compound, the IC50 in assay [2] (setting [6]) was determined as 16 nM; in assay [4], 10.5 ± 0.7 nM; in assay [3], 2.4 ± 0.3 nM; in assay [5], 29 ± 3 nM.
For `CCOc1ccc(C(=O)C2CCN(CC(=O)NCc3nc4c(c(=O)[nH]3)COCC4)CC2)cc1F` [Example 95, 2-[4-(4-Ethoxy-3-fluoro-benzoyl)-piperidin-1-yl]-N-(4-oxo-3,5,7,8-tetrahydro-4H-pyrano[4,3-c]pyrimidin-2-ylmethyl)-acetamide], in that order: 26 ± 7 nM, 32 ± 5 nM, 16 ± 5 nM, 6.6 ± 0.7 nM and 38 ± 3 nM.
In the same order, the values of `COc1ccc(C(=O)C2CCN(CC(=O)NCc3cc4c(c(=O)o3)COCC4)CC2)cc1` [Example 96, 2-[4-(4-methoxy-benzoyl)-piperidin-1-yl]-N-(1-oxo-5,8-dihydro-1H,6H-pyrano[3,4-c]pyran-3-ylmethyl)-acetamide] are 24 ± 8 nM, 65 ± 23 nM, 133 ± 31 nM, 13 ± 3 nM and 328 ± 1 nM.
For `CC(c1nc2c(c(=O)[nH]1)COCC2)N(C)C(=O)CN1CCC(C(=O)c2ccc(F)cc2)CC1` (stereo not shown) [Example 98, 2-(4-(4-Fluorobenzoyl)piperidin-1-yl)-N-methyl-N-(1-(4-oxo-4,5,7,8-tetrahydro-3H-pyrano[4,3-d]pyrimidin-2-yl)ethyl)acetamide], in that order: 72 ± 15 nM, 258 nM, 723 ± 10 nM, 17 ± 8 nM and 4100 ± 500 nM.
